One block for each molecule: values may come before it.
Test: xn = mol fraction of the nth substance listed
Details: 298.15 K, 100 kPa

- electrical conductivity (x1 = 0.0198): 0.493 S/m
- electrical conductivity (x1 = 0.0392): 0.821 S/m
- electrical conductivity (x1 = 0.0676): 1.2 S/m
- electrical conductivity (x1 = 0.148): 1.69 S/m
- electrical conductivity (x1 = 0.2876): 1.53 S/m
- electrical conductivity (x1 = 0.4094): 1.1 S/m
- electrical conductivity (x1 = 1): 0.0522 S/m
Structure (SMILES): CCCC[n+]1ccn(C)c1.[I-] + CCO

- electrical conductivity (x1 = 0.0104): 0.33 S/m
- electrical conductivity (x1 = 0.0208): 0.581 S/m
- electrical conductivity (x1 = 0.0477): 1.15 S/m
- electrical conductivity (x1 = 0.0766): 1.62 S/m
- electrical conductivity (x1 = 0.1141): 2.09 S/m
- electrical conductivity (x1 = 0.1621): 2.51 S/m
- electrical conductivity (x1 = 0.2282): 2.75 S/m
- electrical conductivity (x1 = 0.3112): 2.76 S/m
Structure (SMILES): CC[n+]1ccn(C)c1.[I-] + CCO

- electrical conductivity (x2 = 0): 0.0001 S/m
Structure (SMILES): CCO + CC[n+]1ccn(C)c1.[I-]
